Laboratory results as given in ChEMBL document CHEMBL6177951, “Synthesis and anti-MRSA activity of quaternized small molecule antimicrobial peptide mimics based on norharmane” (Eur J Med Chem, 2025).
Activity calls are given as the source filed them. No cut-off for these calls is given here.

What was measured:
Staphylococcus aureus [1] = assay: Antibacterial activity against Staphylococcus aureus ATCC 33591 assessed as inhibition of bacterial growth at 0.5 times MIC measured at 0 to 12 hrs by growth kinetic assay; type: functional, organism-based; conditions: time 0-12 hrs
[2] = Toxicity in female Kunming mouse assessed as inflammatory response in kidney at 500 to 2000 mg/kg, sc measured after 7 days by H and E staining based analysis; type: organism-based; conditions: in vivo, 168 h, dose 500-2000 mg/kg, time 7 day
Staphylococcus aureus [3] = assay: Bactericidal activity against Staphylococcus aureus ATCC 33591 assessed as eradication of bacteria at 4 times MIC measured at 4 hrs by time-kill kinetic assay relative to control; type: functional
Staphylococcus aureus [4] = assay: In vivo antibacterial activity against methicillin-resistant Staphylococcus aureus infected in female Kunming mouse skin infection model assessed as recovery of dorsal surface at 5 to 20 mg/kg measured after 48 hrs; type: functional, organism-based; conditions: dose 5-20 mg/kg
Staphylococcus aureus [5] = assay: Induction of morphological changes in methicillin-resistant Staphylococcus aureus assessed as appearance of fragments at 0.5 ug/ml incubated for 6 hrs by SEM analysis; type: functional, organism-based; conditions: dose 0.5 µg/ml
Staphylococcus aureus [6] = assay: Antibacterial activity against methicillin-resistant Staphylococcus aureus clinical isolate M-23 incubated for 14 hrs by two-fold serial dilution method; type: functional
[7] = Hemolytic activity in sheep RBC assessed as hemolysis at 1024 ug/ml incubated for 1 hrs relative to control; type: toxicity, cell-based, Ovis aries, Erythrocyte; conditions: sheep red blood cells, at 1024 µg/mL, read-out: Activity
Staphylococcus aureus [8] = assay: Antibiofilm activity against methicillin-resistant Staphylococcus aureus assessed as inhibition of biofilm formation at 2 ug/ml incubated for 24 hrs by crystal violet staining based analysis relative to control; type: functional; design: scale not given: the % may be the effect or the level left; conditions: dose 2 µg/ml
Staphylococcus aureus [9] = assay: Induction of morphological changes in methicillin-resistant Staphylococcus aureus assessed as appearance of rough cell surface at 0.5 ug/ml incubated for 6 hrs by SEM analysis; type: functional, organism-based; conditions: dose 0.5 µg/ml
Staphylococcus aureus [10] = assay: Antibacterial activity against methicillin-resistant Staphylococcus aureus ATCC 43300 assessed as inhibition of bacterial growth incubated for 14 hrs by two-fold serial dilution method; type: functional
Staphylococcus aureus [11] = assay: Antibacterial activity against methicillin-resistant Staphylococcus aureus clinical isolate M-20 incubated for 14 hrs by two-fold serial dilution method; type: functional
Cell membrane [12] = assay: Induction of cytoplasmic membrane depolarization in methicillin-resistant Staphylococcus aureus assessed as increase in fluorescence intensity by DiSC35 dye based microplate reader analysis; type: subcellular
Staphylococcus aureus [13] = assay: Antibacterial activity against methicillin-resistant Staphylococcus aureus clinical isolate M-18 incubated for 14 hrs by two-fold serial dilution method; type: functional
Staphylococcus aureus [14] = assay: Antibacterial activity against methicillin-resistant Staphylococcus aureus assessed as reduction in bacterial growth in presence of 16 ug/ml peptidoglycan incubated for 0.5 hrs by exogenous addition assay; type: functional, organism-based
Staphylococcus aureus [15] = assay: Induction of oxidative damage in methicillin-resistant Staphylococcus aureus assessed as reduction in SOD activity incubated for 8 hrs; type: functional, organism-based; conditions: dose 0.25-2 µg/ml
Calf thymus DNA [16] = assay: Binding affinity to calf thymus DNA assessed as change in enthalpy at 3 uM by ITC assay; type: nucleic-acid assay; conditions: Bos taurus
Staphylococcus aureus [17] = assay: Antibiofilm activity against methicillin-resistant Staphylococcus aureus assessed as inhibition of biofilm formation at 4 ug/ml incubated for 24 hrs by crystal violet staining based analysis relative to control; type: functional; design: scale not given: the % may be the effect or the level left; conditions: dose 4 µg/ml
Calf thymus DNA [18] = assay: Binding affinity to calf thymus DNA assessed as change in entropy at 3 uM by ITC assay; type: nucleic-acid assay; conditions: Bos taurus
[19] = Toxicity in female Kunming mouse assessed as abnormality inside skin at 5 to 20 mg/kg, sc measured after 48 hrs; type: organism-based; conditions: in vivo, dose 5-20 mg/kg
Staphylococcus aureus [20] = assay: Antibacterial activity against Staphylococcus aureus ATCC 25923 assessed as inhibition of bacterial growth incubated for 14 hrs by two-fold serial dilution method; type: functional
Cell membrane [21] = assay: Induction of cell membrane permeability in methicillin-resistant Staphylococcus aureus assessed as increase in protein leakage at 2 ug/ml incubated for 8 hrs by Bradford assay; type: subcellular; conditions: dose 2.0 µg/ml
Staphylococcus aureus [22] = assay: In vivo antibacterial activity against methicillin-resistant Staphylococcus aureus infected in female Kunming mouse skin infection model assessed as reduction in inflammatory cells at 5 to 20 mg/kg measured after 48 hrs by H and E staining based analysis; type: functional, organism-based; conditions: dose 5-20 mg/kg
Staphylococcus aureus [23] = assay: Antibacterial activity against Staphylococcus aureus ATCC 33591 assessed as log reduction in bacterial growth at 4 times MIC measured at 6 hrs by time-kill kinetic assay; type: functional
[24] = Toxicity in female Kunming mouse assessed as pathological changes in kidney at 500 to 2000 mg/kg, sc measured after 7 days by H and E staining based analysis; type: organism-based; conditions: in vivo, 168 h, dose 500-2000 mg/kg, time 7 day
Staphylococcus aureus [25] = assay: Antibacterial activity against methicillin-resistant Staphylococcus aureus clinical isolate M-14 incubated for 14 hrs by two-fold serial dilution method; type: functional
Lipoteichoic acid = assay: Displacement of BODIPY-TR-cadaverine from Staphylococcus aureus LTA assessed as increase in fluorescence intensity at 2 ug/ml incubated for 0.5 hrs by fluorescence based analysis relative to control; conditions: dose 2.0 µg/ml
Staphylococcus aureus [26] = assay: Antibacterial activity against methicillin-resistant Staphylococcus aureus clinical isolate M-19 incubated for 14 hrs by two-fold serial dilution method; type: functional
Staphylococcus aureus [27] = assay: Induction of oxidative damage in methicillin-resistant Staphylococcus aureus assessed as loss of GSH activity incubated for 8 hrs; type: functional, organism-based; conditions: dose 0.25-2 µg/ml
Staphylococcus aureus [28] = assay: Antibacterial activity against methicillin-resistant Staphylococcus aureus assessed as reduction in bacterial growth by measuring fold increase in MIC in presence of 32 ug/ml peptidoglycan incubated for 0.5 hrs by exogenous addition assay; type: functional
Staphylococcus aureus [29] = assay: Antibacterial activity against Staphylococcus aureus ATCC 33591 assessed as log reduction in bacterial growth at 1 times MIC measured at 6 hrs by time-kill kinetic assay; type: functional

**Q.** Which Activity (Staphylococcus aureus [1]) does the source give for `C[n+]1ccc2c3ccccc3n(CCCCCCCCCCCn3c4ccccc4c4cc[n+](C)cc43)c2c1.[I-].[I-]` here?
**A.** Its Activity is “Active”.

**Q.** And the Activity [2]?
**A.** Its Activity is “Non-toxic”.

**Q.** And the Activity (Staphylococcus aureus [3])?
**A.** Its Activity is 100%.

**Q.** What about the Activity (Staphylococcus aureus [4]) of the same molecule?
**A.** Its Activity is “Active”.

**Q.** And the Activity (Staphylococcus aureus [5])?
**A.** Its Activity is “Active”.

**Q.** And the MIC (Staphylococcus aureus [6])?
**A.** The MIC was 0.5 µg/mL.

**Q.** And the hemolysis at 1 h, 1024 ug/ml [7]?
**A.** The hemolysis at 1 h, 1024 ug/ml was 26.4%.

**Q.** What about the Activity (Staphylococcus aureus [8]) of the same molecule?
**A.** The Activity was 79%.

**Q.** What about the Activity (Staphylococcus aureus [9]) of the same molecule?
**A.** The Activity was “Active”.

**Q.** And the MIC (Staphylococcus aureus [10])?
**A.** Its MIC is 1 µg/mL.

**Q.** What about the MIC (Staphylococcus aureus [11]) of the same molecule?
**A.** Its MIC is 0.5 µg/mL.

**Q.** What about the Activity (Cell membrane [12]) of the same molecule?
**A.** Its Activity is “Dose-dependent-effect”.

**Q.** What about the MIC (Staphylococcus aureus [13]) of the same molecule?
**A.** Its MIC is 0.5 µg/mL.

**Q.** What about the Activity (Staphylococcus aureus [14]) of the same molecule?
**A.** The Activity was “Active”.

**Q.** What about the Activity (Staphylococcus aureus [15]) of the same molecule?
**A.** The Activity was “Dose-dependent-effect”.

**Q.** What about the deltaH (Calf thymus DNA [16]) of the same molecule?
**A.** The deltaH was -0.223 kcal/mol.

**Q.** And the Activity (Staphylococcus aureus [17])?
**A.** The Activity was 98%.

**Q.** What about the deltaS (Calf thymus DNA [18]) of the same molecule?
**A.** The deltaS was 99.2 J/mol.K.

**Q.** And the Activity [19]?
**A.** Its Activity is “Non-toxic”.

**Q.** What about the MIC (Staphylococcus aureus [20]) of the same molecule?
**A.** The MIC was 1 µg/mL.

**Q.** What about the Activity (Cell membrane [21]) of the same molecule?
**A.** The Activity was 27.8 µg/mL.

**Q.** What about the Activity (Staphylococcus aureus [22]) of the same molecule?
**A.** Its Activity is “Active”.

**Q.** And the Activity (Staphylococcus aureus [23])?
**A.** Its Activity is 5.31 log10CFU/ml.

**Q.** What about the Activity [24] of the same molecule?
**A.** The Activity was “Non-toxic”.

**Q.** What about the MIC (Staphylococcus aureus [25]) of the same molecule?
**A.** The MIC was 0.25 µg/mL.

**Q.** What about the Activity (Lipoteichoic acid) of the same molecule?
**A.** The Activity was 31.7%.

**Q.** What about the MIC (Staphylococcus aureus [26]) of the same molecule?
**A.** The MIC was 0.5 µg/mL.

**Q.** What about the Activity (Staphylococcus aureus [27]) of the same molecule?
**A.** Its Activity is “Dose-dependent-effect”.

**Q.** And the “fold change (FC)” value (Staphylococcus aureus [28])?
**A.** Its value is 4.

**Q.** What about the Activity (Staphylococcus aureus [29]) of the same molecule?
**A.** Its Activity is 3.95 log10CFU/ml.
